Measurements as given in ChEMBL document CHEMBL2380196, “New anticancer active and selective phenylene-bisbenzothiazoles: synthesis, antiproliferative evaluation and DNA binding” (Eur J Med Chem, 2013).
Active and inactive are the calls of the source. No cut-off for these calls is given here.

Key:
HeLa [1] = assay: Cell cycle arrest in human HeLa cells assessed as accumulation in S phase at 5 uM after 48 hrs using propidium iodide staining by flow cytometry relative to control; type: functional
HeLa [2] = assay: Cell cycle arrest in human HeLa cells assessed as accumulation in sub-G1 phase at 5 uM after 48 hrs using propidium iodide staining by flow cytometry relative to control; type: functional
MIA PaCa-2 [3] = assay: Cell cycle arrest in human MIAPaCa2 cells assessed as accumulation in G1 phase at 10 uM after 24 hrs using propidium iodide staining by flow cytometry relative to control; type: functional
HeLa [4] = assay: Cell cycle arrest in human HeLa cells assessed as accumulation in G2/M phase at 5 uM after 24 hrs using propidium iodide staining by flow cytometry relative to control; type: functional
HeLa [5] = assay: Cell cycle arrest in human HeLa cells assessed as accumulation in S phase at 10 uM after 48 hrs using propidium iodide staining by flow cytometry relative to control; type: functional
MIA PaCa-2 [6] = assay: Cell cycle arrest in human MIAPaCa2 cells assessed as accumulation in G2/M phase at 5 uM after 24 hrs using propidium iodide staining by flow cytometry relative to control; type: functional
HeLa [7] = assay: Cell cycle arrest in human HeLa cells assessed as accumulation in G2/M phase at 5 uM after 48 hrs using propidium iodide staining by flow cytometry relative to control; type: functional
MIA PaCa-2 [8] = assay: Cell cycle arrest in human MIAPaCa2 cells assessed as accumulation in sub-G1 phase at 5 uM after 48 hrs using propidium iodide staining by flow cytometry relative to control; type: functional
MIA PaCa-2 [9] = assay: Cell cycle arrest in human MIAPaCa2 cells assessed as accumulation in G2/M phase at 10 uM after 48 hrs using propidium iodide staining by flow cytometry relative to control; type: functional
MIA PaCa-2 [10] = assay: Cell cycle arrest in human MIAPaCa2 cells assessed as accumulation in S phase at 5 uM after 48 hrs using propidium iodide staining by flow cytometry relative to control; type: functional
MIA PaCa-2 [11] = assay: Cell cycle arrest in human MIAPaCa2 cells assessed as accumulation in G1 phase at 5 uM after 48 hrs using propidium iodide staining by flow cytometry relative to control; type: functional
MIA PaCa-2 [12] = assay: Antiproliferative activity against human MIAPaCa2 cells after 72 hrs by MTT assay; type: functional, cell-based; conditions: MIA PaCa-2, 72 h; for CC50: read-out: LC50 (the source's name)
HeLa [13] = assay: Cell cycle arrest in human HeLa cells assessed as accumulation in G2/M phase at 10 uM after 24 hrs using propidium iodide staining by flow cytometry relative to control; type: functional
SK-BR-3 [14] = assay: Cell cycle arrest in human SKBR3 cells assessed as accumulation in G2/M phase at 10 uM after 48 hrs using propidium iodide staining by flow cytometry relative to control; type: functional
MIA PaCa-2 [15] = assay: Cell cycle arrest in human MIAPaCa2 cells assessed as accumulation in S phase at 10 uM after 48 hrs using propidium iodide staining by flow cytometry relative to control; type: functional
MIA PaCa-2 [16] = assay: Cell cycle arrest in human MIAPaCa2 cells assessed as accumulation in S phase at 10 uM after 24 hrs using propidium iodide staining by flow cytometry relative to control; type: functional
DNA [17] = assay: Binding affinity to calf thymus DNA assessed as change in melting temperature at 0.25 drug/DNA ratio by spectrophotometer analysis; type: nucleic-acid assay; conditions: Bos taurus
SK-BR-3 [18] = assay: Induction of apoptosis in human SKBR3 cells at 10 uM after 48 hrs using propidium iodide/Annexin-V staining by flow cytometry relative to control; type: functional
SK-BR-3 [19] = assay: Cell cycle arrest in human SKBR3 cells assessed as accumulation in sub-G1 phase at 10 uM after 24 hrs using propidium iodide staining by flow cytometry relative to control; type: functional
HeLa [20] = assay: Cell cycle arrest in human HeLa cells assessed as accumulation in G1 phase at 5 uM after 48 hrs using propidium iodide staining by flow cytometry relative to control; type: functional
HeLa [21] = assay: Cell cycle arrest in human HeLa cells assessed as accumulation in S phase at 10 uM after 24 hrs using propidium iodide staining by flow cytometry relative to control; type: functional
SK-BR-3 [22] = assay: Cell cycle arrest in human SKBR3 cells assessed as accumulation in G1 phase at 5 uM after 24 hrs using propidium iodide staining by flow cytometry relative to control; type: functional
HeLa [23] = assay: Cell cycle arrest in human HeLa cells assessed as accumulation in G1 phase at 5 uM after 24 hrs using propidium iodide staining by flow cytometry relative to control; type: functional
HeLa [24] = assay: Cell cycle arrest in human HeLa cells assessed as accumulation in S phase at 5 uM after 24 hrs using propidium iodide staining by flow cytometry relative to control; type: functional
[25] = (§1) Antiproliferative activity against human WI38 cells after 72 hrs by MTT assay; type: cell-based, WI-38; conditions: human, WI-38 cells; read-out: LC50
WI-38 = assay: as §1; type: cell-based; conditions: Homo sapiens, WI-38, 72 h
HeLa [26] = assay: Cell cycle arrest in human HeLa cells assessed as accumulation in G1 phase at 10 uM after 48 hrs using propidium iodide staining by flow cytometry relative to control; type: functional
SK-BR-3 [27] = assay: Cell cycle arrest in human SKBR3 cells assessed as accumulation in S phase at 10 uM after 24 hrs using propidium iodide staining by flow cytometry relative to control; type: functional
SK-BR-3 [28] = assay: Cell cycle arrest in human SKBR3 cells assessed as accumulation in G1 phase at 5 uM after 48 hrs using propidium iodide staining by flow cytometry relative to control; type: functional
SK-BR-3 [29] = assay: Cell cycle arrest in human SKBR3 cells assessed as accumulation in G2/M phase at 10 uM after 24 hrs using propidium iodide staining by flow cytometry relative to control; type: functional
SK-BR-3 [30] = assay: Antiproliferative activity against human SKBR3 cells after 72 hrs by MTT assay; type: functional, cell-based; conditions: SK-BR-3, 72 h; for CC50: read-out: LC50 (the source's name)
HeLa [31] = assay: Cell cycle arrest in human HeLa cells assessed as accumulation in G1 phase at 10 uM after 24 hrs using propidium iodide staining by flow cytometry relative to control; type: functional
SK-BR-3 [32] = assay: Cell cycle arrest in human SKBR3 cells assessed as accumulation in S phase at 10 uM after 48 hrs using propidium iodide staining by flow cytometry relative to control; type: functional
MIA PaCa-2 [33] = assay: Cell cycle arrest in human MIAPaCa2 cells assessed as accumulation in sub-G1 phase at 10 uM after 48 hrs using propidium iodide staining by flow cytometry relative to control; type: functional
HeLa [34] = assay: Cell cycle arrest in human HeLa cells assessed as accumulation in sub-G1 phase at 10 uM after 24 hrs using propidium iodide staining by flow cytometry relative to control; type: functional
MIA PaCa-2 [35] = assay: Cell cycle arrest in human MIAPaCa2 cells assessed as accumulation in G1 phase at 10 uM after 48 hrs using propidium iodide staining by flow cytometry relative to control; type: functional
DNA [36] = assay: Binding affinity to calf thymus DNA assessed as hypochromic effect at 20 uM by UV/Vis spectra analysis; type: nucleic-acid assay; conditions: Bos taurus
HeLa [37] = assay: Antiproliferative activity against human HeLa cells after 72 hrs by MTT assay; type: functional, cell-based; conditions: for CC50: read-out: LC50 (the source's name)
HeLa [38] = assay: Cell cycle arrest in human HeLa cells assessed as accumulation in sub-G1 phase at 5 uM after 24 hrs using propidium iodide staining by flow cytometry relative to control; type: functional
MIA PaCa-2 [39] = assay: Cell cycle arrest in human MIAPaCa2 cells assessed as accumulation in G2/M phase at 5 uM after 48 hrs using propidium iodide staining by flow cytometry relative to control; type: functional

## Cl.Cl.c1cc2nc(-c3ccc(-c4nc5ccc(C6=NCCN6)cc5s4)cc3)sc2cc1C1=NCCN1
HeLa [1]
  Activity: 49.6%
HeLa [2]
  Activity: 22.7%
MIA PaCa-2 [3]
  Activity: 40.9%
HeLa [4]
  Activity: 13.4%
HeLa [5]
  Activity: 44%
MIA PaCa-2 [6]
  Activity: 5.8%
HeLa [7]
  Activity: 18.9%
MIA PaCa-2 [8]
  Activity: 35.7%
MIA PaCa-2 [9]
  Activity: 18.4%
MIA PaCa-2 [10]
  Activity: 35.8%
MIA PaCa-2 [11]
  Activity: 45.9%
MIA PaCa-2 [12]
  IC50: 3.54 µM
  CC50: 36.7 µM
HeLa [13]
  Activity: 7.2%
SK-BR-3 [14]
  Activity: 20.3%
MIA PaCa-2 [15]
  Activity: 40.9%
MIA PaCa-2 [16]
  Activity: 40.1%
DNA [17]
  ΔTm: 3.9 °C
SK-BR-3 [18]
  Activity: 15%
SK-BR-3 [19]
  Activity: 31.6%
HeLa [20]
  Activity: 31.9%
HeLa [21]
  Activity: 58.7%
SK-BR-3 [22]
  Activity: 58.9%
HeLa [23]
  Activity: 42%
HeLa [24]
  Activity: 44.5%
[25]
  CC50 at 72 h: > 100 µM
WI-38
  IC50: > 100 µM
HeLa [26]
  Activity: 42.3%
SK-BR-3 [27]
  Activity: 39.1%
SK-BR-3 [28]
  Activity: 53.6%
SK-BR-3 [29]
  Activity: 14.5%
SK-BR-3 [30]
  IC50: 1.18 µM
  CC50: 8.07 µM
HeLa [31]
  Activity: 34.2%
SK-BR-3 [32]
  Activity: 42.3%
MIA PaCa-2 [33]
  Activity: 53.9%
HeLa [34]
  Activity: 15.5%
MIA PaCa-2 [35]
  Activity: 40.6%
DNA [36]
  Activity: Active
HeLa [37]
  IC50: 7.75 µM
  CC50: 71.1 µM
HeLa [38]
  Activity: 9.9%
MIA PaCa-2 [39]
  Activity: 18.4%

## Cl.Cl.c1cc(-c2nc3ccc(C4=NCCN4)cc3s2)cc(-c2nc3ccc(C4=NCCN4)cc3s2)c1
HeLa [1]
  Activity: 39.3%
HeLa [2]
  Activity: 13.3%
MIA PaCa-2 [3]
  Activity: 41.6%
HeLa [4]
  Activity: 24%
HeLa [5]
  Activity: 71.4%
MIA PaCa-2 [6]
  Activity: 10.9%
HeLa [7]
  Activity: 17.2%
MIA PaCa-2 [8]
  Activity: 20.4%
MIA PaCa-2 [9]
  Activity: 8.6%
MIA PaCa-2 [10]
  Activity: 30.8%
MIA PaCa-2 [11]
  Activity: 52.1%
MIA PaCa-2 [12]
  IC50: 0.26 µM
  CC50: 1.49 µM
HeLa [13]
  Activity: 2.1%
SK-BR-3 [14]
  Activity: 11.1%
MIA PaCa-2 [15]
  Activity: 50.8%
MIA PaCa-2 [16]
  Activity: 49.1%
DNA [17]
  ΔTm: 12.8 °C
SK-BR-3 [18]
  Activity: 75%
SK-BR-3 [19]
  Activity: 23.1%
HeLa [20]
  Activity: 47.5%
HeLa [21]
  Activity: 66.3%
SK-BR-3 [22]
  Activity: 34.5%
HeLa [23]
  Activity: 39.3%
HeLa [24]
  Activity: 38.4%
[25]
  CC50 at 72 h: 6.63 µM
WI-38
  IC50: 0.15 µM
HeLa [26]
  Activity: 20.4%
SK-BR-3 [27]
  Activity: 62.1%
SK-BR-3 [28]
  Activity: 36.2%
SK-BR-3 [29]
  Activity: 17.8%
SK-BR-3 [30]
  IC50: 0.04 µM
  CC50: 0.87 µM
HeLa [31]
  Activity: 31.7%
SK-BR-3 [32]
  Activity: 67.8%
MIA PaCa-2 [33]
  Activity: 9.1%
HeLa [34]
  Activity: 12.5%
MIA PaCa-2 [35]
  Activity: 42.8%
DNA [36]
  Activity: Active
HeLa [37]
  IC50: 2.06 µM
  CC50: 7.38 µM
HeLa [38]
  Activity: 14.4%
MIA PaCa-2 [39]
  Activity: 17.1%
